Experimental data published in PubChem BioAssay (NCI).
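Assay format: 96-well plates, 48-hour exposure. GI50: concentration for 50% inhibition of growth. TGI denotes the concentration required for complete inhibition of growth.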

What was measured:
Experiment in all cases: NCI anticancer screen, dose series, 48 h
786-0 renal = system: 786-0 renal
A498 renal = system: A498 renal
A549 NSCLC = system: A549 NSCLC
ACHN renal = system: ACHN renal
BT-549 breast = system: BT-549 breast
CAKI-1 renal = system: CAKI-1 renal
CCRF-CEM leukemia = system: CCRF-CEM leukemia
COLO 205 colon = system: COLO 205 colon
DU-145 prostate = system: DU-145 prostate
EKVX NSCLC = system: EKVX NSCLC
HCC-2998 colon = system: HCC-2998 colon
HCT-116 colon = system: HCT-116 colon
HCT-15 colon = system: HCT-15 colon
HL-60(TB) leukemia = system: HL-60(TB) leukemia
HOP-62 NSCLC = system: HOP-62 NSCLC
HOP-92 NSCLC = system: HOP-92 NSCLC
HS 578T breast = system: HS 578T breast
HT29 colon = system: HT29 colon
IGROV1 ovarian = system: IGROV1 ovarian
K-562 leukemia = system: K-562 leukemia
KM12 colon = system: KM12 colon
LOX IMVI melanoma = system: LOX IMVI melanoma
M14 melanoma = system: M14 melanoma
MALME-3M melanoma = system: MALME-3M melanoma
MCF7 breast = system: MCF7 breast
MDA-MB-231 breast = system: MDA-MB-231 breast
MDA-MB-435 = system: MDA-MB-435
MDA-MB-468 breast = system: MDA-MB-468 breast
MOLT-4 leukemia = system: MOLT-4 leukemia

`Cn1cc(-c2nc(N)nnc2-c2c[nH]c3ccccc23)c2cc(Br)cnc21` showed a GI50 (786-0 renal) of 53.7 nM, a TGI (786-0 renal) of 15600 nM and a GI50 (A498 renal) of 15600 nM. It also gave a TGI (A498 renal) of 29700 nM, a GI50 (A549 NSCLC) of 62.5 nM and a TGI (A549 NSCLC) of 19300 nM. For the same compound, the GI50 (ACHN renal) was 74.3 nM, the TGI (ACHN renal) was 16900 nM and the GI50 (BT-549 breast) was 29 nM. It also gave a TGI (BT-549 breast) of 5670 nM, a GI50 (CAKI-1 renal) of 53.5 nM and a TGI (CAKI-1 renal) of 17100 nM. For the same compound, the GI50 (CCRF-CEM leukemia) was 33.4 nM, the TGI (CCRF-CEM leukemia) was > 35500 nM and the GI50 (COLO 205 colon) was 41.4 nM. The TGI (COLO 205 colon) was 280 nM, the GI50 (DU-145 prostate) was 87.7 nM and the TGI (DU-145 prostate) was 22400 nM. For the same compound, the GI50 (EKVX NSCLC) was 94.9 nM, the TGI (EKVX NSCLC) was 20700 nM and the GI50 (HCC-2998 colon) was 84.1 nM. For the same compound, the TGI (HCC-2998 colon) was 3470 nM, the GI50 (HCT-116 colon) was 44.1 nM and the TGI (HCT-116 colon) was 6510 nM. It also gave a GI50 (HCT-15 colon) of 37.6 nM, a TGI (HCT-15 colon) of 10700 nM and a GI50 (HL-60(TB) leukemia) of 26.5 nM. The TGI (HL-60(TB) leukemia) was 100 nM, the GI50 (HOP-62 NSCLC) was 56.4 nM and the TGI (HOP-62 NSCLC) was 21200 nM. For the same compound, the GI50 (HOP-92 NSCLC) was 3890 nM, the TGI (HOP-92 NSCLC) was 25500 nM and the GI50 (HS 578T breast) was 31.9 nM. The TGI (HS 578T breast) was 33700 nM, the GI50 (HT29 colon) was 34.7 nM and the TGI (HT29 colon) was 1230 nM. The GI50 (IGROV1 ovarian) was 72.1 nM, the TGI (IGROV1 ovarian) was 15200 nM and the GI50 (K-562 leukemia) was 35.7 nM. For the same compound, the TGI (K-562 leukemia) was > 100000 nM, the GI50 (KM12 colon) was 50.6 nM and the TGI (KM12 colon) was 13900 nM. The GI50 (LOX IMVI melanoma) was 43.5 nM, the TGI (LOX IMVI melanoma) was 15800 nM and the GI50 (M14 melanoma) was 52.6 nM. The TGI (M14 melanoma) was 2060 nM, the GI50 (MALME-3M melanoma) was 46.6 nM and the TGI (MALME-3M melanoma) was 18500 nM. The GI50 (MCF7 breast) was 27.5 nM, the TGI (MCF7 breast) was 10600 nM and the GI50 (MDA-MB-231 breast) was 69.7 nM. For the same compound, the TGI (MDA-MB-231 breast) was 11700 nM, the GI50 (MDA-MB-435) was 16.7 nM and the TGI (MDA-MB-435) was 52.5 nM. The GI50 (MDA-MB-468 breast) was 20 nM, the TGI (MDA-MB-468 breast) was 51.8 nM and the GI50 (MOLT-4 leukemia) was 50.5 nM.
